Laboratory results from US20240041042A1, “1-(PYRIDYL)-5-AZINYLPYRAZOLE DERIVATIVES, AND THEIR USE FOR CONTROL OF UNDESIRED PLANT GROWTH” (Bayer Aktiengesellschaft, priority 2020, published 2024).

What was measured:
Format in all cases: in vivo
Lolium rigidum (LOLRI) [1] = assay: Post-emergence herbicidal action against LOLRI
How it was run: (§1)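 Rates were 320 g/ha or below, applied as aqueous WP/EC spray with 0.5% additive (600 l/ha) onto one-leaf-stage plants. About 3 weeks later in the greenhouse, damage was scored visually against untreated plants on a 0–100% scale, where 100% means plants died.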

[2] = system: Echinochloa crus-galli (ECHCG); assay: Pre-emergence herbicidal action against ECHCG
How it was run: (§2)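 Seeds sown in pots and covered with soil; WP or EC formulations sprayed onto the soil surface at 600 l/ha water with 0.5% additive, at 320 g/ha or lower. Greenhouse growth for about 3 weeks, then visual scoring as % effect against untreated controls (100% = plants dead).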

[3] = system: Polygonum convolvulus (POLCO); assay: Post-emergence herbicidal action against POLCO
How it was run: as §1

[4] = system: Amaranthus retroflexus (AMARE); assay: Pre-emergence herbicidal action against AMARE; conditions: visual scoring after about 3 weeks vs untreated controls
How it was run: as §2

[5] = system: Echinochloa crus-galli (ECHCG); assay: Post-emergence herbicidal action against ECHCG
How it was run: as §1

Lolium rigidum (LOLRI) [6] = assay: Pre-emergence herbicidal action against LOLRI
How it was run: as §2

Viola tricolor (VIOTR) = assay: Pre-emergence herbicidal action against VIOTR
How it was run: as §2

[7] = system: Pharbitis purpurea (PHBPU); assay: Pre-emergence herbicidal action against PHBPU
How it was run: as §2

[8] = system: Alopecurus myosuroides (ALOMY); assay: Post-emergence herbicidal action against ALOMY; conditions: visual rating about 3 weeks after treatment vs untreated controls (100% = plants have died, 0% = like control plants)
How it was run: as §1

Setaria viridis (SETVI) = assay: Pre-emergence herbicidal action against SETVI
How it was run: as §2

Structure (SMILES)	Post-emergence action against LOLRI in % (Lolium rigidum (LOLRI) [1]; dosage 80 g/ha) [%]	Post-emergence action against LOLRI in % (Lolium rigidum (LOLRI) [1]; dosage 320 g/ha) [%]	Pre-emergence action against ECHCG in % ([2]; dosage 80 g/ha) [%]	Pre-emergence action against ECHCG in % ([2]; dosage 320 g/ha) [%]	Post-emergence action against POLCO in % ([3]; dosage 80 g/ha) [%]	Post-emergence action against POLCO in % ([3]; dosage 320 g/ha) [%]	Pre-emergence action against AMARE in % ([4]; 80 g/ha) [%]	Pre-emergence action against AMARE in % ([4]; 320 g/ha) [%]	Post-emergence action against ECHCG in % ([5]; dosage 80 g/ha) [%]	Post-emergence action against ECHCG in % ([5]; dosage 320 g/ha) [%]	Pre-emergence action against LOLRI in % (Lolium rigidum (LOLRI) [6]; dosage 80 g/ha) [%]	Pre-emergence action against LOLRI in % (Lolium rigidum (LOLRI) [6]; dosage 320 g/ha) [%]	Pre-emergence action against VIOTR in % (Viola tricolor (VIOTR); 320 g/ha, Viola tricolor) [%]	Pre-emergence action against VIOTR in % (Viola tricolor (VIOTR); dosage 80 g/ha) [%]	Pre-emergence action against PHBPU in % ([7]; dosage 80 g/ha) [%]	Pre-emergence action against PHBPU in % ([7]; dosage 320 g/ha) [%]	Post-emergence action against ALOMY in % ([8]; 80 g/ha) [%]	Post-emergence action against ALOMY in % ([8]; 320 g/ha) [%]	Pre-emergence action against SETVI in % (Setaria viridis (SETVI); dosage 80 g/ha) [%]	Pre-emergence action against SETVI in % (Setaria viridis (SETVI); dosage 320 g/ha) [%]
C[C@@H](Oc1nn(-c2ncccc2F)c(-c2ccc(F)nc2)c1C1CC1)C(=O)O [Example I-342]	90	90	100	100	80	90	100	100	90	90	100	100	100	100	80	90	100	100	90	100
COC(=O)C(C)NC(=O)[C@@H](C)Oc1nn(-c2ccccn2)c(-c2cncc(F)c2)c1Br (stereo partly shown) [Example I-190]	90	90	90	100	80	80	90	100	80	80	100	100	100	100	90	90	80	100	90	100
COC(=O)CNC(=O)[C@@H](C)Oc1nn(-c2ccccn2)c(-c2cncc(F)c2)c1Br [Example I-187]	90	90	90	100	80	80	80	100	80	80	90	100	100	100	90	90		90	100	100
COC(=O)[C@@H](C)COC(=O)COc1nn(-c2ccccn2)c(-c2cncc(F)c2)c1Br [Example I-194]	80	90	80	100			100	100	80	80	90	100	100		90	90	90	90	90	100
O=C(O)COc1nn(-c2ncccc2F)c(-c2ccc(F)nc2)c1Br [Example I-17]		80	90	90			100	100	80	80		100	100	100		90	90	90	100	100
COC(=O)[C@@H](C)Oc1nn(-c2ncccc2F)c(-c2ccc(F)nc2)c1C1CC1 [Example I-307]	100	100	100	100	80	80	100	100	90	90	100	100	100	100		90	100	100	100	100
COC(=O)COc1nn(-c2ncccc2F)c(-c2cncc(F)c2)c1Br [Example I-16]			90	90			100	100	80	80	90	100	100	100		80	90	90	90	100
O=C(O)COc1nn(-c2nc(F)ccc2F)c(-c2cncc(F)c2)c1C1CC1 [Example I-148]	80	80	90	100			100	100	80	80	90	100	100	100		90	80	90	90	100
C[C@@H](Oc1nn(-c2ncccc2F)c(-c2ccc(F)nc2)c1Br)C(=O)O [Example I-18]		80	90	90			100	100	80	80	90	100	100	100		90	90	100	100	100
COC(=O)[C@@H](C)Oc1nn(-c2ccccn2)c(-c2cncc(F)c2)c1Cl [Example I-189]	100	100	90	100			100	100	90	90	100	100	100	100	90	90	80	90	100	100
O=C(O)COc1nn(-c2ccccn2)c(-c2cncnc2)c1Br [Example I-66]		90	80	100	80	90	90	100	80	90	80	100	100	90			100	100	100	100
COC(=O)C(C)COC(=O)[C@@H](C)Oc1nn(-c2ccccn2)c(-c2cncc(F)c2)c1Cl (stereo partly shown) [Example I-198]	80	80	90	100			100	100	80	80	100	100	100	90	80	90	80	80	100	100
